Assay results taken from ChEMBL document CHEMBL3132819, “2-Hydroxy-substituted cinnamic acids and acetanilides are selective growth inhibitors of Mycobacterium tuberculosis” (Medchemcomm, 2014).
In brackets after ≈: the same amount, converted by molar mass.

Tests used:
[1] = tested on: Mycolicibacterium smegmatis; test: Antibacterial activity against Mycobacterium smegmatis MC2 155 assessed as growth inhibition; type: functional; details: str. MC2 155
[2] = Selectivity index, ratio of GI50 for mouse RAW264.7 cells to MIC for Mycobacterium tuberculosis H37Rv ATCC 27294; type: toxicity; details: read-out: Selectivity Index
[3] = Cytotoxicity against mouse RAW264.7 cells assessed as growth inhibition after 48 hrs by trypan blue assay; type: cell-based
[4] = tested on: Mycobacterium tuberculosis; test: Antibacterial activity against Mycobacterium tuberculosis H37Rv ATCC 27294 after 2 weeks by spot culture growth inhibition assay; type: functional; details: H37Rv ATCC 27294, 336 h

Row | SMILES | MIC [1] | selectivity ratio [2] | GI50 at 48 h [3] | MIC [4]
1 | CC(C)=CCOc1ccc(/C=C/C(=O)O)cc1 | > 600 µM | 15.6 | 1340 µM | 86.1 µM (≈ 20 µg/mL)
2 | CC(C)=CCOc1cccc(/C=C/C(=O)O)c1 | > 600 µM | 7.53 | – | 172 µM (≈ 40 µg/mL)
3 | COC(=O)/C=C/c1ccccc1OCC=C(C)C | > 600 µM | < 6.4 | – | > 406 µM
4 | CC(C)=CCC/C(C)=C/COc1ccc(/C=C/C(=O)O)cc1 | > 600 µM | 3.14 | 210 µM | 66.8 µM (≈ 20.1 µg/mL)
5 | O=C(O)/C=C/c1ccc2c(c1)OCO2 | > 600 µM | 8.8 | – | 312 µM (≈ 60 µg/mL)
6 | NNC(=O)c1ccncc1 [ISONIAZID] | – | 30000 | 21900 µM | 0.73 µM (≈ 0.1 µg/mL)
7 | COC(=O)/C=C/c1ccc(O)cc1 [METHYL P-HYDROXYCINNAMATE] | > 600 µM | 2.72 | 609 µM | 224 µM (≈ 39.9 µg/mL)
8 | COC(=O)/C=C/c1cccc(OCC=C(C)C)c1 | > 600 µM | 12.2 | – | 244 µM (≈ 60.1 µg/mL)
9 | O=C(O)/C=C/c1cccc(O)c1 | > 600 µM | 14.5 | 5290 µM | 366 µM (≈ 60.1 µg/mL)
10 | COC(=O)/C=C/c1ccccc1O | > 600 µM | 10 | 1120 µM | 112 µM (≈ 20 µg/mL)
11 | CC(C)=CCOc1ccccc1/C=C/C(=O)O | > 600 µM | 6.52 | – | 258 µM (≈ 59.9 µg/mL)
12 | O=C(O)/C=C/c1ccc(O)cc1 [COUMARIC ACID] | > 600 µM | 18.7 | 4560 µM | 244 µM (≈ 40.1 µg/mL)
13 | COC(=O)/C=C/c1ccc(OC/C=C(\C)CCC=C(C)C)cc1 | > 600 µM | 1.25 | 159 µM | 127 µM (≈ 39.9 µg/mL)
14 | CC(=O)Nc1ccc(O)cc1 [ACETAMINOPHEN] | > 600 µM | < 1.52 | 1000 µM | > 661 µM
15 | CO[C@H]1/C=C/O[C@@]2(C)Oc3c(C)c(O)c4c(O)c(c(/C=N/N5CCN(C)CC5)c(O)c4c3C2=O)NC(=O)/C(C)=C\C=C\[C@H](C)[C@H](O)[C@@H](C)[C@@H](O)[C@@H](C)[C@H](OC(C)=O)[C@@H]1C [RIFAMPIN] | – | 14000 | 850 µM | 0.0607 µM (≈ 0.05 µg/mL)
16 | CC(=O)Nc1ccccc1O | > 600 µM | 31.8 | 4200 µM | 132 µM (≈ 20 µg/mL)
17 | O=C(O)/C=C/c1ccccc1 [CINNAMIC ACID] | > 600 µM | 24.2 | 6550 µM | 270 µM (≈ 40 µg/mL)
18 | O=C(O)/C=C/c1ccccc1O [O-COUMARIC ACID] | > 600 µM | 37.4 | 4560 µM | 122 µM (≈ 20 µg/mL)
19 | COC(=O)/C=C/c1cccc(O)c1 | > 600 µM | 3.8 | 850 µM | 224 µM (≈ 39.9 µg/mL)
20 | COC(=O)/C=C/c1ccc(OCC=C(C)C)cc1 | > 600 µM | 6 | 487 µM | 81.2 µM (≈ 20 µg/mL)
21 | CC(=O)Nc1cccc(O)c1 [METACETAMOL] | > 600 µM | < 8.08 | 5340 µM | > 661 µM
